# Laboratory results from patent US12600725B2 (Memorial Sloan-Kettering Cancer Center, priority 2013, dated 2026).
# What was measured:
# [1] = test system: NCI-N87 cells; experiment: Cell viability assessment (CellTiter-Glo); format: cell-based
# [2] = test system: PANC-1 cells; experiment: Cell viability assessment (CellTiter-Glo); format: cell-based
# [3] = test system: HER2-overexpressing breast cancer cells; experiment: Cell cycle, PARP cleavage, apoptosis and Hsp70 induction in HER2-overexpressing breast cancer cells; format: cell-based
# [4] = test system: A673 Ewing sarcoma cells; experiment: Apoptosis assessment (Annexin V / 7AAD); format: cell-based
# Protocol: (§1) The disclosure provides evidence that Grp94 inhibitors are efficacious in treating cancer with altered expression of the IGF1R and where the receptor is necessary for pathogenesis and tumor progression.
# (§2) Cell cycle and apoptosis assessment. Cell cycle and apoptosis were assessed by flow cytometry after single staining with propidium iodide (PI, BD Pharmingen) or double staining with AnnexinV-FITC (BD Pharmingen) and 7AAD (BD Pharmingen), respectively. Specifically, for cell cycle analysis, cells were washed twice with cold PBS and fixed in 70% ethanol overnight at 4° C. Fixed cells were collected at 1800 rpm for 10 min and stained with PBS containing PI and DNase-free RNase A (Sigma-Aldrich) for 1 h at room temperature in the dark. DNA content was measured by BD LSRII flow cytometer and cell further analyzed using program of cell cycle analysis in FloJo (Ashland, OR). The chicken erythrocyte nuclei singlets (CEN, Biosure) were used as the reference. For apoptosis assessment, live cells were collected, washed twice with cold PBS, resuspended in Binding Buffer and stained with AnnexinV-FITC and 7AAD for 15 min at room temperature in the dark. Signals from FL1 and FL3 channels were collected by MACSQuant analyzer and further analyzed using FloJo. Early apoptosis was defined as AnnexinV+/7AAD−, and late apoptosis was observed as AnnexinV+/7AAD+.
# [5] = test system: TC71 Ewing sarcoma cells; experiment: Apoptosis assessment (Annexin V / 7AAD); format: cell-based
# Protocol: as §1, §2
# [6] = test system: IGF-II secretion by differentiated C2C12 cells; experiment: C2C12 differentiation and IGF-II secretion assay; format: cell-based, mouse; conditions: 24 hrs treatment
# Excerpt: C2C12 differentiation and IGF-II secretion assay (Wanderling, S. et al. GRP94 is essential for mesoderm induction and muscle development because it regulates insulin-like growth factor secretion. Mol. Biol. Cell 18, 3764-75 (2007); Ostrovsky, O., Ahmed, N.T. & Argon, Y. The chaperone activity of GRP94 toward insulin-like growth factor II is necessary for the stress response to serum deprivation. Mol. Biol. Cell 20, 1855-64 (2009)). C2C12 cells were maintained and cultured in DMEM in the presence of 10% FBS and 1% penicillin/streptomycin (Culture medium). C2C12 is an immortal line of mouse skeletal myoblasts originally derived from satellite cells from the thigh muscle of a two month old female mouse donor. These cells differentiate well into myocytes under appropriate culture conditions. […] Secreted IGF-II was quantified by using IGF-II mouse ELISA kit (Abcam, AB100696) according to the manufacturer's instructions. […] The bound IGF-II was detected with a biotinylated anti-IGF-II antibody. After the sequential incubation with HRP conjugated streptavidin, TMB One-step substrate reagent and the Stop solution, the absorbance was measured at 450 nm. The secreted IGF-II was quantified against a standard curve generated with recombinant IGF-II provided by the kit.
# [7] = test system: HER2 at the plasma membrane of SKBr3 cells; experiment: Immunofluorescence of HER2 architecture at the plasma membrane; format: cell-based
# Protocol: We next investigated the biological significance of the unique association of HER^2 with Grp94 at the plasma membrane of SKBr3 cells. Because the Grp94 inhibitors described here target the ATP-binding pocket of Grp94, they affect Grp94 chaperone activity. Therefore we hypothesized that Grp94 may act on HER^2 at the plasma membrane to stabilize the protein and to regulate its function.
# Immunofluorescence. Cells were seeded and grown onto culture slides (BD Falcon) for 24 hrs. After washing with cold PBS, cells were fixed by treating at 4° C. for 20 min with 4% paraformaldehyde in PBS, permeabilized with 0.1% Triton X-100 in PBS containing 10% FBS for 10 min, and blocked with 2% BSA for 1 hr. After washing for four times with PBS, primary antibodies were added onto the chambers and cell were incubated overnight at 4° C., washed again with PBS followed by incubation with the secondary antibody for 1 hr at room temperature. Cell were washed and then mounted and observed under microscope (Leica Upright Confocal SP5). The primary antibodies used in the assay are against: HER^2 (Zymed, 28004), Grp94 (Stressgen, SPA-850), Hsp70 (Stressgen, SPA-810), LAMP1-FITC (Abcam, ab25406), EEA1 (Abcam, ab70521), 58K Golgi-FITC (Abcam, ab27043) and Calnexin (BD, 610523).
compound,measurement,setting,value
CC(C)NCCCn1c(Sc2cc(Cl)cc(Cl)c2)nc2c(N)ncnc21 [PU-WS13],sensitivity to Grp94 inhibition,[1],highly susceptible
same,effect on cell growth,[2],effectively inhibited the growth
same,"accumulation of cells in sub-G1 phase, time first observed post-treatment",[3],1 to 2 h
same,cells exhibiting markers of early- and late-stage apoptosis,[3],substantial increase
same,cleavage of PARP,[3],cleavage of PARP
same,feed-back heat shock response (Hsp70 induction),[3],little to no Hsp70 induction
same,induction of apoptosis,[4],capable of inducing apoptosis
same,induction of apoptosis,[5],capable of inducing apoptosis
same,IGF-II secretion,[6],inhibited IGF-II secretion
same,effect on HER2 architecture at the plasma membrane,[7],disruption of the circular architecture of HER^2 at the plasma membrane
